Patent US5807541A, “NSAID/fluoride periodontal compositions and methods” (Sepracor, Inc., priority 1996, dated 1998)
Where two headings read alike, the source gives them in different places.

Legend:
[1] = tested on: PGE2 secretion in human promyelocytic leukemia cells (HL-60 cells); assay: PGE2 secretion in human promyelocytic leukemia (HL-60) cells (A23187-induced), fluoride and NSAIDs alone or combined; conditions: for % inhibition of PGE2 / % stimulation of PGE2 (value in parentheses): Table II; for % Inhibition of A23187-induced PGE2 secretion / % stimulation of A23187-induced PGE2 secretion: mean of two determinations;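 for all read-outs here: fluoride given as NaF, each condition run in duplicate, signals corrected for background and referenced to control, IC50 obtained by nonlinear regression Hill fitting of the curve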
[2] = tested on: prostaglandin production in endothelial cells; conditions: under certain circumstances; cited from earlier work
[3] = tested on: G proteins; conditions: under certain circumstances; cited from earlier work
[4] = tested on: dental caries; conditions: professionally applied topical fluoride, dentifrices and mouthwashes; high risk patients; cited from earlier work
[5] = Homo sapiens, HL-60, read-out: % inhibition of PGE2
[6] = Homo sapiens, HL-60, read-out: IC50, inhibition of PGE2 secretion, summary of Tables III and IV
[7] = ketoprofen enantiomer 10^-7 M + F 0.05%
[8] = ketoprofen enantiomer 10^-7 M + F 0.1%
[9] = ketoprofen enantiomer 10^-7 M + F 0.5%
[10] = ketoprofen enantiomer 10^-7 M, F 0%
[11] = ketoprofen enantiomer 10^-8 M + F 0.05%
[12] = ketoprofen enantiomer 10^-8 M + F 0.1%
[13] = ketoprofen enantiomer 10^-8 M + F 0.5%
[14] = ketoprofen enantiomer 10^-8 M, F 0%
[15] = ketoprofen enantiomer 10^-9 M + F 0.05%
[16] = ketoprofen enantiomer 10^-9 M + F 0.1%
[17] = ketoprofen enantiomer 10^-9 M + F 0.5%
[18] = ketoprofen enantiomer 10^-9 M, F 0%
[19] = ketoprofen enantiomer 10^-10 M + F 0.05%, 0.0001 µM
[20] = ketoprofen enantiomer 10^-10 M + F 0.05%
[21] = ketoprofen enantiomer 10^-10 M + F 0.1%
[22] = ketoprofen enantiomer 10^-10 M + F 0.5%
[23] = ketoprofen enantiomer 10^-10 M, F 0%

SMILES: CC(C(=O)O)c1cccc(C(=O)c2ccccc2)c1 (racemic) [ketoprofen]
- inhibition of PGE2 (in words) ([1]; 10^-10 M ketoprofen alone): undetected
- PGE2 production (in words) ([1]; 10^-10 M ketoprofen at 260 mM fluoride): totally inhibited
- inhibition at 0.001 µM [1, 5]: 40%
- inhibition at 0.01 µM [1, 5]: 63%
- inhibition at 0.1 µM [1, 5]: 82%
- IC50 ([1]; Homo sapiens, HL-60, read-out: IC50, PGE2 production, racemic ketoprofen + 52 mM fluoride): 11.8 nM
- IC50 ([1]; Homo sapiens, HL-60, read-out: IC50, PGE2 production, racemic ketoprofen alone (no F)): 2.8 nM
- inhibition at 0.0001 µM ([1]; Homo sapiens, HL-60, read-out: inhibition of PGE2 levels): 26%
- % inhibition of PGE2 ([1]; racemic ketoprofen 10^-7 M + fluoride 26 mM): 66%
- % inhibition of PGE2 ([1]; racemic ketoprofen 10^-7 M + fluoride 52 mM): 85%
- % inhibition of PGE2 ([1]; racemic ketoprofen 10^-7 M + fluoride 260 mM): 98%
- % inhibition of PGE2 ([1]; racemic ketoprofen 10^-8 M + fluoride 52 mM): 46%
- % inhibition of PGE2 ([1]; racemic ketoprofen 10^-8 M + fluoride 260 mM): 97%
- % stimulation of PGE2 (value in parentheses) ([1]; racemic ketoprofen 10^-9 M + fluoride 26 mM): 125%
- % inhibition of PGE2 ([1]; racemic ketoprofen 10^-9 M + fluoride 52 mM): 11%
- % inhibition of PGE2 ([1]; racemic ketoprofen 10^-9 M + fluoride 260 mM): 101%
- % stimulation of PGE2 (value in parentheses) ([1]; racemic ketoprofen 10^-10 M + fluoride 26 mM): 125%
- % inhibition of PGE2 ([1]; racemic ketoprofen 10^-10 M + fluoride 260 mM): 102%
- increase of IC50 for ketoprofen by fluoride ([1]; fluoride 0.1% (52 mM) vs ketoprofen alone): approximately 4 fold
- stimulation induced by F^- (in words) ([1]; highest concentration of ketoprofen (10^-7)): overcome

SMILES: C[C@@H](C(=O)O)c1cccc(C(=O)c2ccccc2)c1 [(R)-Ketoprofen]
- IC50 [1, 6]: ~100 nM
- % Inhibition of A23187-induced PGE2 secretion [1, 7]: 47%
- % Inhibition of A23187-induced PGE2 secretion [1, 8]: 75%
- % Inhibition of A23187-induced PGE2 secretion [1, 9]: 100%
- % Inhibition of A23187-induced PGE2 secretion [1, 10]: 81%
- % Inhibition of A23187-induced PGE2 secretion [1, 11]: 5%
- % Inhibition of A23187-induced PGE2 secretion [1, 12]: 32%
- % Inhibition of A23187-induced PGE2 secretion [1, 13]: 99%
- % Inhibition of A23187-induced PGE2 secretion [1, 14]: 39%
- stimulation factor, A23187-induced PGE2 secretion ([1]; ketoprofen enantiomer 10^-9 M + F 0.05%, 0.001 µM): 1.14 ×
- % stimulation of A23187-induced PGE2 secretion [1, 15]: 14%
- % Inhibition of A23187-induced PGE2 secretion [1, 16]: 2%
- % Inhibition of A23187-induced PGE2 secretion [1, 17]: 99%
- % Inhibition of A23187-induced PGE2 secretion [1, 18]: 6%
- stimulation factor, A23187-induced PGE2 secretion [1, 19]: 1.27 ×
- % stimulation of A23187-induced PGE2 secretion [1, 20]: 27%
- % Inhibition of A23187-induced PGE2 secretion [1, 21]: 23%
- % Inhibition of A23187-induced PGE2 secretion [1, 22]: 98%
- % Inhibition of A23187-induced PGE2 secretion [1, 23]: 14%

SMILES: C[C@H](C(=O)O)c1cccc(C(=O)c2ccccc2)c1 [(S)-Ketoprofen]
- IC50 [1, 6]: ~0.4 nM
- relative potency, inhibition of PGE2 secretion (in words) ([1]; S- vs R-ketoprofen): more potent than R-ketoprofen
- % Inhibition of A23187-induced PGE2 secretion [1, 7]: 95%
- % Inhibition of A23187-induced PGE2 secretion [1, 8]: 98%
- % Inhibition of A23187-induced PGE2 secretion [1, 9]: 99%
- % Inhibition of A23187-induced PGE2 secretion [1, 10]: 96%
- % Inhibition of A23187-induced PGE2 secretion [1, 11]: 82%
- % Inhibition of A23187-induced PGE2 secretion [1, 12]: 89%
- % Inhibition of A23187-induced PGE2 secretion [1, 13]: 98%
- % Inhibition of A23187-induced PGE2 secretion [1, 14]: 89%
- % Inhibition of A23187-induced PGE2 secretion [1, 15]: 35%
- % Inhibition of A23187-induced PGE2 secretion [1, 16]: 54%
- % Inhibition of A23187-induced PGE2 secretion [1, 17]: 100%
- % Inhibition of A23187-induced PGE2 secretion [1, 18]: 70%
- stimulation factor, A23187-induced PGE2 secretion [1, 19]: 1.22 ×
- % stimulation of A23187-induced PGE2 secretion [1, 20]: 27%
- % Inhibition of A23187-induced PGE2 secretion [1, 21]: 18%
- % Inhibition of A23187-induced PGE2 secretion [1, 22]: 100%
- % Inhibition of A23187-induced PGE2 secretion [1, 23]: 10%

SMILES: [F-].[Na+] [fluoride, sodium fluoride]
- PGE2 secretion, % Control, 1st Value ([1]; F 0.0001% (52 μM)): 80.1%
- PGE2 secretion, % Control, 2nd value ([1]; F 0.0001% (52 μM)): 87.4%
- PGE2 secretion, % Control, mean ([1]; F 0.0001% (52 μM)): 83.7%
- PGE2 secretion, % Control, 1st Value ([1]; F 0.001% (520 μM)): 94.1%
- PGE2 secretion, % Control, 2nd value ([1]; F 0.001% (520 μM)): 74.9%
- PGE2 secretion, % Control, mean ([1]; F 0.001% (520 μM)): 84.5%
- PGE2 secretion, % Control, 1st Value ([1]; F 0.01% (5.2 mM)): 117.7%
- PGE2 secretion, % Control, 2nd value ([1]; F 0.01% (5.2 mM)): 99.8%
- PGE2 secretion, % Control, mean ([1]; F 0.01% (5.2 mM)): 108.7%
- PGE2 secretion, % Control, 1st Value ([1]; F 0.02% (10.4 mM)): 188.7%
- PGE2 secretion, % Control, 2nd value ([1]; F 0.02% (10.4 mM)): 208.8%
- PGE2 secretion, % Control, mean ([1]; F 0.02% (10.4 mM)): 198.8%
- PGE2 secretion, % Control, 1st Value ([1]; F 0.05% (26 mM)): 157.9%
- PGE2 secretion, % Control, 2nd value ([1]; F 0.05% (26 mM)): 177.3%
- PGE2 secretion, % Control, mean ([1]; F 0.05% (26 mM)): 167.6%
- stimulation factor, A23187-induced PGE2 secretion ([1]; F 0.05%, ketoprofen 0): 1.16 ×
- % stimulation of A23187-induced PGE2 secretion ([1]; F 0.05%, ketoprofen 0): 16%
- PGE2 secretion, % Control, 1st Value ([1]; F 0.07% (36 mM)): 142.1%
- PGE2 secretion, % Control, 2nd value ([1]; F 0.07% (36 mM)): 142.1%
- PGE2 secretion, % Control, mean ([1]; F 0.07% (36 mM)): 142.1%
- PGE2 secretion, % Control, 1st Value ([1]; F 0.1% (52 mM)): 115.1%
- PGE2 secretion, % Control, 2nd value ([1]; F 0.1% (52 mM)): 112.6%
- PGE2 secretion, % Control, mean ([1]; F 0.1% (52 mM)): 113.9%
- % Inhibition of A23187-induced PGE2 secretion ([1]; F 0.1%, ketoprofen 0): 26%
- PGE2 secretion, % Control, 1st Value ([1]; F 0.2% (104 mM)): 5.2%
- PGE2 secretion, % Control, 2nd value ([1]; F 0.2% (104 mM)): 8.9%
- PGE2 secretion, % Control, mean ([1]; F 0.2% (104 mM)): 7.0%
- PGE2 secretion, % Control, 1st Value ([1]; F 0.3% (156 mM)): 4.9%
- PGE2 secretion, % Control, 2nd value ([1]; F 0.3% (156 mM)): 3.1%
- PGE2 secretion, % Control, mean ([1]; F 0.3% (156 mM)): 4.0%
- PGE2 secretion, % Control, 1st Value ([1]; F 0.5% (260 mM)): 0.5%
- PGE2 secretion, % Control, 2nd value ([1]; F 0.5% (260 mM)): 1.7%
- PGE2 secretion, % Control, mean ([1]; F 0.5% (260 mM)): 1.1%
- % Inhibition of A23187-induced PGE2 secretion ([1]; F 0.5%, ketoprofen 0): 96%
- production of prostaglandins (in words) ([1]; concentration range employed for the prevention of dental caries): stimulates the production of prostaglandins
- maximum stimulation of PGE2 secretion ([1]; fluoride 0.02%): 99%
- effect of fluoride on the inhibitory effects of R- and S-ketoprofen (in words) ([1]; fluoride 26 mM): decrease of the inhibitory effects of R- and S-ketoprofen
- effect of fluoride in combination with R- and S-ketoprofen (in words) ([1]; fluoride 260 mM): amplifies its inhibitory effects
- effect on PGE2 secretion (in words) ([1]; fluoride above 0.2%): completely inhibits PGE2 secretion
- stimulation of PGE2 production ([1]; fluoride alone, 26 mM (0.05%)): 108%
- inhibition of PGE2 production ([1]; fluoride alone, 52 mM): 12%
- inhibition of PGE2 production ([1]; fluoride alone, 260 mM): 92%
- effect on stimulated PGE2 secretion (in words) ([1]; fluoride below about 5 mM (below about 0.01% w/v)): no significant effect
- effect on PGE2 secretion (in words) ([1]; fluoride from 0.0001 to 0.01%): no effect
- effect on PGE2 secretion (in words) ([1]; fluoride from 0.02 to 0.07%): induces stimulation
- effect on PGE2 secretion (in words) ([1]; fluoride ion above about 50 mM (above about 0.1% w/v)): inhibitory to PGE2 secretion
- peak production of PGE2, % of control ([1]; fluoride ion at about 10 mM): 200%
- production of PGE2 (in words) ([1]; fluoride ion between about 5 and about 50 mM): stimulates the production of prostaglandin E2
- prostaglandin production in endothelial cells (in words) [2]: induce prostaglandin production
- activation of G proteins (in words) [3]: activate G proteins
- prevention of dental caries (in words) [4]: effective in preventing dental caries among high risk patients

SMILES: COc1ccc2c(c1)c(CC(=O)O)c(C)n2C(=O)c1ccc(Cl)cc1 [indomethacin]
- IC50 ([1]; Homo sapiens, HL-60, read-out: IC50, A23187-induced PGE2 secretion, in the absence of fluoride): 0.92 nM
